Target: Histone deacetylase
Experiment: Inhibition of HDAC from human HeLa cells
Format: cell-based
Settings: not given

CSCCCCCCC(=O)Nc1ccccc1 was tested, and the IC50 was over 100000 nM.

In order of rising IC50:
1. O=C(NO)c1ccc(-c2ccccn2)s1  243 nM
2. O=C(NO)c1ccc(-c2cccnc2)s1  1130 nM
3. O=C(NO)c1ccc(-c2ccncc2)s1  1260 nM

Same assay, conditions: read-out: IC50

In order of falling IC50:
1. CC(=O)SCCCCCCC(=O)Nc1ccccc1  7100 nM
2. O=C(CCCCS)Nc1ccccc1  6200 nM
3. CN(c1ccccc1)S(=O)(=O)c1cccc(/C=C/C(=O)NO)c1  476 nM
4. COc1ccc(-c2nc3cc(-c4ccccc4)ccc3o2)cc1NC(=O)NCCCCCC(=O)NO  400 nM
5. O=C(/C=C/c1cccc(NS(=O)(=O)c2ccccc2)c1)NO  188 nM
6. COc1ccc(-c2nc3cc(Cl)ccc3o2)cc1NC(=O)NCCCCCC(=O)NO  146 nM
7. COc1ccc(S(=O)(=O)Nc2cccc(/C=C/C(=O)NO)c2)cc1OC  137 nM
8. COc1ccc(-c2nc3cc(Cl)cc(Cl)c3o2)cc1NC(=O)NCCCCCC(=O)NO  128 nM
9. Cc1ccc(S(=O)(=O)Nc2cccc(/C=C/C(=O)NO)c2)cc1  123 nM
10. O=C(/C=C/c1cccc(NS(=O)(=O)c2ccc(-c3ccccc3)cc2)c1)NO  106 nM
11. O=C(/C=C/c1ccc(S(=O)(=O)Nc2ccc(-c3ccccc3)cc2)cc1)NO  66 nM
12. O=C(/C=C/c1cccc(S(=O)(=O)Nc2ccc(-c3ccccc3)cc2)c1)NO  54 nM
13. O=C(/C=C/c1cccc(S(=O)(=O)NCc2ccccc2)c1)NO  34 nM
14. O=C(/C=C/c1ccc(NS(=O)(=O)c2ccc(-c3ccccc3)cc2)cc1)NO  30 nM
15. O=C(/C=C/c1ccc(S(=O)(=O)Nc2ccccc2)cc1)NO  29 nM
16. COc1ccc(NS(=O)(=O)c2cccc(/C=C/C(=O)NO)c2)cc1OC  23 nM
17. O=C(CCCCCNC(=O)Nc1cccc(-c2nc3cc(C(F)(F)F)ccc3o2)c1)NO  19 nM
18. Cc1ccc(NS(=O)(=O)c2cccc(/C=C/C(=O)NO)c2)cc1  18 nM
19. COc1ccc(-c2nc3ccc(F)cc3o2)cc1NC(=O)NCCCCCC(=O)NO  18 nM
20. COc1ccc(-c2nc3cc(F)ccc3o2)cc1NC(=O)NCCCCCC(=O)NO  15 nM
21. COc1ccc(-c2nc3ccccc3o2)cc1NC(=O)NCCCCCC(=O)NO  12 nM
22. COc1ccc2oc(-c3cccc(NC(=O)NCCCCCC(=O)NO)c3)nc2c1  12 nM
23. O=C(CCCCCNC(=O)Nc1cccc(-c2nc3ccc(F)cc3o2)c1)NO  9 nM
24. O=C(CCCCCNC(=O)Nc1cccc(-c2nc3ccccc3o2)c1)NO  8 nM
25. O=C(CCCCCNC(=O)Nc1cccc(-c2nc3cc(F)ccc3o2)c1)NO  8 nM

Tested on: HCT-116
Experiment: Inhibition of human HCT116 cells
Format: functional, cell-based
Settings: not given

In order of falling IC50:
1. COc1ccc(CNc2ccc(/C=C/C(=O)Nc3ccccc3N)cc2)cc1  37000 nM
2. Nc1ccccc1NC(=O)CCCCCCNC(=O)c1cccc(-c2ccccc2)c1  12000 nM
3. COc1ccc(NCc2ccc(/C=C/C(=O)Nc3ccccc3N)cc2)cc1  12000 nM
4. Nc1ccccc1NC(=O)CCCCCCNC(=O)c1ccc(-c2ccccc2)cc1  7000 nM
5. COc1ccc(CNc2ccc(/C=C/C(=O)Nc3ccccc3N)cn2)cc1  3000 nM
6. COc1cc(NCc2ccc(/C=C/C(=O)Nc3ccccc3N)cn2)cc(OC)c1OC  3000 nM
7. COc1cc(CNc2ccc(/C=C/C(=O)Nc3ccccc3N)cn2)cc(OC)c1OC  2000 nM
8. Nc1ccccc1NC(=O)/C=C/c1ccc(NCc2ccccc2)nc1  1000 nM
9. COc1ccc(CCNc2ccc(C(=O)Nc3ccccc3N)cn2)cc1  800 nM
10. COc1ccc(CNc2ccc(C(=O)Nc3ccccc3N)cc2)cc1OC  600 nM
11. COc1ccc(CNc2ccc(C(=O)Nc3ccccc3N)cn2)cc1  500 nM
12. Nc1ccccc1NC(=O)c1ccc(CSc2nc3ccccc3[nH]2)cc1  320 nM
13. Nc1ccccc1NC(=O)c1ccc(/C=C/C(=O)NCCc2c[nH]c3ccccc23)cc1  300 nM
14. Nc1ccccc1NC(=O)c1ccc(/C=C/CNc2nccc(-c3cccnc3)n2)cc1  200 nM
15. COc1cc(NC/C=C/c2ccc(C(=O)Nc3ccccc3N)cc2)cc(OC)c1OC  100 nM
16. Nc1ccccc1NC(=O)c1ccc(/C=C/C(=O)NCc2cccnc2)cc1  70 nM

Target: Histone deacetylase
Experiment: Inhibition of HDAC from human K562 cells
Format: cell-based
Settings: not given

In order of rising IC50:
1. COc1ccc(-c2cnc(CCCCCCC(=O)NO)o2)cc1  2.1 nM
2. COc1ccc(-c2csc(CCCCCCC(=O)NO)n2)cc1  2.5 nM
3. O=C(CCCCCCc1ncc(-c2ccc(Br)cc2)o1)NO  2.7 nM
4. O=C(CCCCCCc1nc(-c2ccc3ccccc3c2)cs1)NO  4.3 nM
5. COc1cccc(OC)c1-c1csc(CCCCCCC(=O)NO)n1  4.3 nM
6. O=C(CCCCCCc1cnc(-c2ccc(Br)cc2)o1)NO  4.4 nM
7. O=C(CCCCCCc1nc(-c2cccc(Br)c2)cs1)NO  5.8 nM
8. O=C(CCCCCCc1ncc(-c2ccc(-c3ccc(Cl)cc3)cc2)o1)NO  6.8 nM
9. O=C(CCCCCCc1nc(-c2ccc(Br)cc2)cs1)NO  8.5 nM
10. O=C(CCCCCCc1ncc(-c2ccccc2)o1)NO  9.8 nM
11. O=C(CCCCCCc1nc(-c2ccc(-c3ccccc3)cc2)cs1)NO  11 nM
12. O=C(CCCCCCc1cnc(-c2ccc(-c3ccccc3)cc2)o1)NO  12 nM
13. O=C(CCCCCCc1cnc(-c2ccccc2)o1)NO  13 nM
14. O=C(CCCCCCc1nc(-c2ccccc2)cs1)NO  19 nM
15. O=C(CCCCCCc1cnc(-c2ccc(F)cc2)o1)NO  23 nM
16. O=C(CCCCCCc1nc(-c2ccc(C(F)(F)F)cc2)cs1)NO  42 nM
17. CC(C)[C@H]1NC(=O)[C@@H](C)[C@@H](C/C=C\CCC(N)=O)NC(=O)[C@@H](Cc2ccccc2)NC(=O)[C@@H](C)NC1=O [AZUMAMIDE A]  45 nM
18. COC(=O)C(=O)CCCCCCOc1ccc(-c2ccccc2)cc1  62 nM
19. O=C(CCCCCCc1nc(-c2ccc(OC(F)(F)F)cc2)cs1)NO  74 nM
20. COC(=O)C(=O)CCCCCOc1ccc(-c2ccccc2)cc1  82 nM
21. O=C(CCCCCCc1cnc(-c2ccc(OC(F)(F)F)cc2)o1)NO  89 nM
22. COC(=O)C(=O)CCCCCCCOc1ccc(-c2ccccc2)cc1  109 nM
23. C[C@@H]1C(=O)N[C@H](C)C(=O)N[C@H](C)C(=O)N[C@H](Cc2ccccc2)C(=O)N[C@@H]1C/C=C\CCC(N)=O [AZUMAMIDE D]  1300 nM
24. O=C(O)C(=O)CCCCCCOc1ccc(-c2ccccc2)cc1  3700 nM
25. CCNC(=O)C(=O)CCCCCCOc1ccc(-c2ccccc2)cc1  4900 nM
26. C1=C\CCCCCC[n+]2cccc(c2)CCCCCCCCCCCC[n+]2cccc(c2)CCCCCC/1  27000 nM

CN(C)C(=O)C(=O)CCCCCCOc1ccc(-c2ccccc2)cc1 showed an IC50 of over 5000 nM.
Work on NC(=O)C(=O)CCCCCCOc1ccc(-c2ccccc2)cc1 yielded an IC50 of over 50000 nM.
Work on O=C(O)CNC(=O)C(=O)CCCCCCOc1ccc(-c2ccccc2)cc1 yielded an IC50 of over 50000 nM.
CN(C)CCNC(=O)C(=O)CCCCCCOc1ccc(-c2ccccc2)cc1 was tested, and the IC50 was over 50000 nM.

Target: T1, Histone deacetylase 1 (Homo sapiens, UniProt Q13547)
T1 sequence (Q13547 whole entry): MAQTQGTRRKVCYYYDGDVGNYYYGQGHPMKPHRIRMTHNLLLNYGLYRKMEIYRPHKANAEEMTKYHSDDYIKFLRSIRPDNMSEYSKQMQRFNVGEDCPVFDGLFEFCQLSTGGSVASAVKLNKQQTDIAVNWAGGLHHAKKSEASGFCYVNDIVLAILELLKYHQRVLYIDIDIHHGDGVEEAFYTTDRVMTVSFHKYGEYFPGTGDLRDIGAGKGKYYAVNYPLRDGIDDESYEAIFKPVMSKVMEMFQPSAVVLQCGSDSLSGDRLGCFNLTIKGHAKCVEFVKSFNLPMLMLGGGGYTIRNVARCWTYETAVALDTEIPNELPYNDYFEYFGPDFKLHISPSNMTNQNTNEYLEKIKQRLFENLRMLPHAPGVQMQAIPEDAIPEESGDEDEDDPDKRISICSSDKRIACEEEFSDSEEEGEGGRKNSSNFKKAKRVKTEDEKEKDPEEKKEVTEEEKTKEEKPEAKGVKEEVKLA
Experiment: Inhibition of HDAC1 from human HeLa cells
Format: cell-based
Settings: not given

In order of falling IC50:
1. CC(=O)CCCCC[C@H](NC(C)=O)C(=O)NCCc1c(-c2ccccc2)[nH]c2ccccc12  7600 nM
2. CC(=O)CCCCC[C@H](NC(=O)c1cncs1)C(=O)NCCc1c(-c2ccccc2)[nH]c2ccccc12  3000 nM
3. CC(=O)CCCCC[C@H](NC(=O)C1CCCCN1C)C(=O)NCCc1c(-c2ccccc2)[nH]c2ccccc12 (some centres undefined)  2500 nM
4. CC(=O)CCCCC[C@H](NC(=O)C1CCCN(C)C1)C(=O)NCCc1c(-c2ccccc2)[nH]c2ccccc12 (some centres undefined)  2000 nM
5. CC(=O)CCCCC[C@H](NC(=O)C1CCN(C)C1)C(=O)NCCc1c(-c2ccccc2)[nH]c2ccccc12 (some centres undefined)  2000 nM
6. CC(=O)CCCCC[C@H](Nc1cncs1)C(=O)Nc1cccc(-c2ccccc2)c1  720 nM
7. CC(=O)CCCCC[C@H](NC1CCCCN1C)C(=O)Nc1cccc(-c2ccccc2)c1 (some centres undefined)  500 nM
8. COc1ccc2[nH]c(C)c(CN[C@@H](CCCCCC(C)=O)C(=O)Nc3cccc(-c4ccccc4)c3)c2c1  230 nM

Target: T1, Histone deacetylase 1
Settings: not given

In order of falling IC50:
1. O=C(NO)c1cc2cc(NC(=O)c3cccc4ccccc34)ccc2s1  1070 nM
2. CC(=O)CCCCC[C@H](NC1CCCCN1C)C(=O)Nc1cccc(-c2ccccc2)c1 (some centres undefined)  79 nM
3. O=C(Nc1ccc2cc(C(=O)NO)sc2c1)c1ccc2ccccc2c1  79 nM
4. CC(=O)CCCCC[C@H](Nc1cncs1)C(=O)Nc1cccc(-c2ccccc2)c1  55 nM
5. COc1ccc2[nH]c(C)c(CN[C@@H](CCCCCC(C)=O)C(=O)Nc3cccc(-c4ccccc4)c3)c2c1  18 nM

Tested on: HT-1080
Experiment: Inhibition of human HT1080 cells
Format: functional, cell-based
Settings: not given

In order of rising IC50:
1. COc1ccc(-c2cnc(CCCCCCC(=O)NO)o2)cc1  310 nM
2. O=C(CCCCCCc1ncc(-c2ccc(-c3ccc(Cl)cc3)cc2)o1)NO  660 nM
3. O=C(CCCCCCc1nc(-c2ccc(-c3ccccc3)cc2)cs1)NO  1320 nM
4. COc1cccc(OC)c1-c1csc(CCCCCCC(=O)NO)n1  2000 nM
5. O=C(CCCCCCc1nc(-c2ccc3ccccc3c2)cs1)NO  2390 nM
6. O=C(CCCCCCc1nc(-c2ccc(C(F)(F)F)cc2)cs1)NO  2390 nM
7. COc1ccc(-c2csc(CCCCCCC(=O)NO)n2)cc1  3630 nM
8. O=C(CCCCCCc1nc(-c2ccccc2)cs1)NO  5070 nM
9. O=C(CCCCCCc1cnc(-c2ccc(OC(F)(F)F)cc2)o1)NO  5140 nM
10. O=C(CCCCCCc1nc(-c2ccc(Br)cc2)cs1)NO  5680 nM
11. O=C(CCCCCCc1ncc(-c2ccc(Br)cc2)o1)NO  7700 nM
12. O=C(CCCCCCc1ncc(-c2ccccc2)o1)NO  8410 nM
13. O=C(CCCCCCc1nc(-c2cccc(Br)c2)cs1)NO  10100 nM
14. O=C(CCCCCCc1cnc(-c2ccc(-c3ccccc3)cc2)o1)NO  15300 nM
15. O=C(CCCCCCc1cnc(-c2ccc(Br)cc2)o1)NO  27000 nM

Tested on: MKN-45
Experiment: Antiproliferative activity against human MKN45 cells
Format: functional, cell-based
Settings: not given

In order of falling IC50:
1. Cn1nc(C(F)(F)F)cc1-c1ccc(C(=O)NO)s1  31500 nM
2. O=C(NO)c1ccc(-c2ccn(Cc3ccccc3)n2)s1  4540 nM
3. COc1ccc(CNCCn2ccc(-c3ccc(C(=O)NO)s3)n2)cc1OC  4500 nM
4. O=C(NO)c1ccc(-c2ccn(CCc3ccccc3)n2)s1  2910 nM
5. O=C(NO)c1ccc(-c2ccn(CCCc3ccccc3)n2)s1  2190 nM
6. O=C(NO)c1ccc(-c2ccn(CCNCc3ccccc3)n2)s1  1800 nM
7. O=C(NO)c1ccc(-c2ccn(CCOc3ccccc3)n2)s1  1500 nM
8. O=C(Cn1ccc(-c2ccc(C(=O)NO)s2)n1)Nc1ccccc1  840 nM
9. O=C(NO)c1ccc(-c2ccn(CCOCc3ccccc3)n2)s1  750 nM
10. O=C(NO)c1ccc(-c2ccn(CCNCc3ccc(-n4ccnc4)cc3)n2)s1  560 nM
11. COc1ccc(CNCCn2ccc(-c3ccc(C(=O)NO)s3)n2)cc1  550 nM
12. Cn1c(CNCCn2ccc(-c3ccc(C(=O)NO)s3)n2)cc2ccccc21  370 nM
13. O=C(NO)c1ccc(-c2ccn(CCNCc3ccc4[nH]ccc4c3)n2)s1  280 nM
14. COc1ccccc1NC(=O)Cn1ccc(-c2ccc(C(=O)NO)s2)n1  230 nM
15. O=C(Cn1ccc(-c2ccc(C(=O)NO)s2)n1)Nc1cccc2cccnc12  200 nM
16. O=C(NO)c1ccc(-c2ccn(CCNCc3ccc(-c4ccccn4)cc3)n2)s1  120 nM

From ChEMBL document CHEMBL1142268, “Histone deacetylase inhibitors: from bench to clinic” (J Med Chem, 2008)
